From patent US8993716B2, “Peptides used in the treatment and/or care of the skin, mucous membranes and/or hair and its use in cosmetic or pharmaceutical compositions” (Lipotec, S.A., priority 2009, dated 2015) come the findings set out here.

The structures appear in SMILES notation. Peptide text beside a SMILES is read from it. * marks the point of attachment. Cbz = O=C(OCc1ccccc1)*

The subject of one series is Hsp70. The series can be described thus: Hsp70 synthesis stimulation assay (competitive ELISA). Type of series: cell-based. Conditions: human keratinocyte cell line, normalized to average basal values. The protocol: Hsp70 synthesis stimulation was assessed in a human keratinocyte cell line in the presence of the peptides of the invention. The cells were seeded (10^6 cells/6-well plate) and incubated for 24 hours in DMEM, after which the peptides were added to 200 μM in culture medium and were incubated for another 16-24 hours. The proteasome inhibitor MG-132 at 10 μM was used as a positive control and vehicle (culture medium) as a negative control. After the incubation period, the cells were washed with PBS, lysed and centrifuged at 12,000 rpm at 4° C. for 10 min. The supernatants were collected, and the Hsp70 levels were determined by carrying out a competitive ELISA assay following the protocols of the commercial kit (DuoSet IC human/mouse total HSP70 ELISA kit, R&D Systems Inc.)
Hsp70 levels were normalized with regards to the average basal values.
A general note: An ELISA detects its analyte on a solid surface through an enzyme-linked reagent.

The subject of the next series is human keratinocytes. It counts as cell-based. Particulars: 2 h, 0.1 mM. The protocol:
The human keratinocytes were maintained in culture for 24 hours in 96-well plates for monolayer formation and the cells were pre-incubated in darkness with 0.1 mM of Ac-L-His-L-Pro-L-Leu-L-Arg-OH, Ac-L-His-L-Leu-L-Leu-L-Arg-OH in culture medium or with vehicle (culture medium) for 2 hours at 37° C. Subsequently the cells were radiated with UVB at an energy of 800 J/m^2. A control plate with vehicle was maintained in the dark without radiation for the same time at room temperature. After the irradiation period the cells' medium was replaced by a fresh medium and the cells were incubated for additional 24 hours. Cell viability was determined by the MTT method, adding 5 mg/mL of the MTT solution to each well and incubating the plate for 4 hours at 37° C., after which time the medium was removed, 100μL of DMSO was added and the plate was stirred at room temperature for 15 min. The optical density of each well was measured at 570 nm in a spectrophotometer.

In the series on Hsp70 (positive control MG-132 at 10 μM), `CC(C)C[C@@H](C=O)NC(=O)[C@H](CC(C)C)NC(=O)[C@H](CC(C)C)NC(=O)OCc1ccccc1` [MG-132, reference compound] (Cbz-Leu-Leu-Leu-aldehyde) showed a Hsp70 increase of 294%.

Take `CC(=O)N[C@@H](Cc1c[nH]cn1)C(=O)N1CCC[C@H]1C(=O)N[C@@H](CC(C)C)C(=O)N[C@@H](CCCNC(=N)N)C(=O)O` [Ac-L-His-L-Pro-L-Leu-L-Arg-OH] (Ac-HPLR-OH): in the series with human keratinocytes, the “CELL VIABILITY” value stood at 97.2%. The compound also came in with a Hsp70 increase with Hsp70 (peptide 200 μM, 16-24 hours) of 42%.

Turning to `CC(=O)N[C@@H](Cc1c[nH]cn1)C(=O)N[C@@H](CC(C)C)C(=O)N[C@@H](CC(C)C)C(=O)N[C@@H](CCCNC(=N)N)C(=O)O` [Ac-L-His-L-Leu-L-Leu-L-Arg-OH] (Ac-HLLR-OH), the “CELL VIABILITY” value in the series with human keratinocytes was determined as 87.7%. This compound also showed a Hsp70 increase in the series on Hsp70 (peptide 200 μM, 16-24 hours) of 28%.
